The test system of assay [1] is Influenza virus (A/PR8/8/34 strain, H1N1). The arrangement: species or system BALB/c mice. To be noted: mouse, in vivo.
The test system of assay [2] is M2e. Also noted: species or system BALB/c mice. Conditions: mouse, in vivo.
In assay [3] the test system is Influenza virus (A/PR8/8/34 strain, H1N1). It counts as in vivo, BALB/c mice. Conditions: 21 days.
Assay [4] concerns M2e. The arrangement: species or system BALB/c mice. To be noted: mouse, in vivo. The source holds these as a separate data set.

Several values for one entry are separate records, joined by “and”; a condition that tells them apart may be missing. Equal values may be shown once. Entries after “also recorded” stand apart in the source; their conditions may differ. Read-outs that look alike come from different tables or passages of the source.

“SLLTEVETPIRNEWGCRCNDSSD (Influenza A virus) [M2e, peptide of 23 amino acid residues, positions No. 2 to No. 24 of M2 in influenza virus type A, no cysteine inserted, reference compound]”: in assay [1], the Survival rate was 3/8. Moreover, the “anti-M2e antibody titer just before challenge” value in the assay with M2e [2] was “could not induce an anti-M2e antibody titer”.
As to “SLLTEVETPTRSEWECRCSDSSD [swM2e, reference compound]”, the Survival rate in assay [3] is 4/10 and 8/10. For the same sequence, the “anti-M2e antibody titer immediately before challenge” value in the assay with M2e [4] was “high anti-M2e antibody titer; also recorded: almost no increase in an antibody titer”.

Values taken from US8883165B2, “Modified peptide vaccine derived from influenza M2” (The Chemo-Sero-Therapeutic Research Institute, priority 2009, dated 2014).
